Measured values as given in paper PMC12217461 (Antimicrobial Agents and Chemotherapy, 2025).

How the values were obtained:
Assay type in all cases: cell-based
[1] = test system: Escherichia coli ATCC 25922; test: microbe, parasite or virus in culture; conditions: ATCC25922, QC 3, no acquired β-lactamase, TAN/XER fixed at 4 µg/mL, XER 8 µg/mL in MEM-XER, read-out: Minimal inhibitory concentration
Experimental: (§1) To assess the inhibitory potency of XER, susceptibility testing was performed by broth microdilution method, determining the minimal inhibitory concentrations (MICs) of different antibiotics or antibiotic plus β-lactamase inhibitor combinations, including cefepime (FEP), imipenem (IPM), meropenem (MEM), and their combinations with XER (FEP-XER, IPM-XER, and MEM-XER). All data obtained with XER-based combinations were compared with data with TAN-based combinations, FEP-TAN, IPM-TAN, and MEM-TAN ([16]). FEP was purchased from Sigma-Aldrich (Saint-Louis, USA), whereas MEM was from HuiChem (Shanghai, China). […] MICs were determined in triplicate in cation-adjusted Mueller-Hinton (MH) broth (Bio-Rad, Marnes-la-Coquette, France) according to the CLSI guidelines ([53]). The results were interpreted according to the decrease in MIC value for the same antibiotic or combination of the corresponding recombinant strain producing the MBL enzyme. […] In a recent phase I clinical evaluation, XER was combined with cefiderocol. However, as this latter β-lactam substrate is known to be poorly hydrolyzed by IMP enzymes, it was not considered for the evaluation of XER inhibitory activity in this study. Instead, carbapenems were used as a substrate to evaluate the β-lactamase IMP activity in the presence or absence of XER and TAN, as it was deemed more specific for the IMP carbapenemase activity.

[2] = test system: Escherichia coli NCTC 13353; test: microbe, parasite or virus in culture; conditions: NCTC13353, read-out: Minimal inhibitory concentration
Experimental: as §1

[3] = test system: Klebsiella pneumoniae ATCC BAA-2814; test: microbe, parasite or virus in culture; conditions: ATCCBAA2814, read-out: Minimal inhibitory concentration
Experimental: as §1

P. aeruginosa ATCC 27853 = test: microbe, parasite or virus in culture; conditions: Pseudomonas aeruginosa, ATCC27853; QC 4; no acquired β-lactamase; TAN/XER fixed at 4 µg/mL, XER 8 µg/mL in MEM-XER; read-out: Minimal inhibitory concentration
Experimental: as §1

C. freundii SMART 315 = test: microbe, parasite or virus in culture; conditions: Citrobacter freundii, SMART315; IMP-4, CTX-M-9; TAN/XER fixed at 4 µg/mL, XER 8 µg/mL in MEM-XER; read-out: Minimal inhibitory concentration
Experimental: (§2) Most isolates and their respective β-lactamase content were characterized by whole-genome sequencing.
as §1

[4] = test system: Citrobacter freundii SMART 958; test: microbe, parasite or virus in culture; conditions: SMART958, IMP-1, OXA-142, TAN/XER fixed at 4 µg/mL, XER 8 µg/mL in MEM-XER, read-out: Minimal inhibitory concentration
Experimental: as §2, §1

[5] = test system: Enterobacter hormaechei subsp. oharae SMART 1260; test: microbe, parasite or virus in culture; conditions: read-out: Minimal inhibitory concentration
Experimental: as §2, §1

[6] = test system: Enterobacter xiangfangensis SMART 409; test: microbe, parasite or virus in culture; conditions: Enterobacter hormaechei, SMART409, read-out: Minimal inhibitory concentration
Experimental: as §2, §1

Escherichia coli AZ 1677 = test: microbe, parasite or virus in culture; conditions: AZ1677, IMP-59, TEM-1, TAN/XER fixed at 4 µg/mL, XER 8 µg/mL in MEM-XER, read-out: Minimal inhibitory concentration
Experimental: as §2, §1

[7] = test system: Klebsiella pneumoniae Kp 5 IMP; test: microbe, parasite or virus in culture; conditions: KP5IMP, read-out: Minimal inhibitory concentration
Experimental: as §2, §1

[8] = test system: Klebsiella pneumoniae SMART 651; test: microbe, parasite or virus in culture; conditions: SMART651, read-out: Minimal inhibitory concentration
Experimental: as §2, §1

[9] = test system: Klebsiella pneumoniae SMART 875; test: microbe, parasite or virus in culture; conditions: SMART875, IMP-26, CTX-M-15, TEM-1 like, TAN/XER fixed at 4 µg/mL, XER 8 µg/mL in MEM-XER, read-out: Minimal inhibitory concentration
Experimental: as §2, §1

[10] = test system: Pseudomonas aeruginosa CC02-010; test: microbe, parasite or virus in culture; conditions: CC02010, IMP-7, TAN/XER fixed at 4 µg/mL, XER 8 µg/mL in MEM-XER, read-out: Minimal inhibitory concentration
Experimental: as §2, §1

Serratia marcescens SM1 = test: microbe, parasite or virus in culture; conditions: IMP-11, TAN/XER fixed at 4 µg/mL, XER 8 µg/mL in MEM-XER, read-out: Minimal inhibitory concentration
Experimental: as §2, §1

E. coli TOP10 = test: microbe, parasite or virus in culture; conditions: Escherichia coli, no MBL, TAN/XER fixed at 4 µg/mL, XER 8 µg/mL in MEM-XER, read-out: Minimal inhibitory concentration
Source text: (§3) Genes encoding different acquired IMP-like enzymes suspected to be resistant to XER (blaIMP-6, blaIMP-7, blaIMP-10, blaIMP-14, blaIMP-26, blaIMP-34, and blaIMP-59) were amplified by PCR, and corresponding amplicons were cloned into plasmid pUCP24 and expressed in E. coli TOP10. The following recombinant E. coli strains producing IMP-1, IMP-4, IMP-19, and NDM-1 were used from a previous study ([16]). […] For that purpose, a list of primers was designed and provided as Table S1. […] The nomenclature used in this study was according to the BBL sequence numbering ([52]).
as §1

[11] = test system: Enterobacter hormaechei (cluster III) SMART 271; test: microbe, parasite or virus in culture; conditions: read-out: Minimal inhibitory concentration
Experimental: as §2, §1

E. coli IMP-34 = test: MIC broth microdilution, recombinant E. coli; conditions: Escherichia coli, IMP34; IMP-1-like, E126G; TAN/XER fixed at 4 µg/mL, XER 8 µg/mL in MEM-XER; read-out: Minimal inhibitory concentration
Source text: as §3, §1

E. coli IMP-7 = test: MIC broth microdilution, recombinant E. coli; conditions: Escherichia coli, IMP7; IMP-7-like; TAN/XER fixed at 4 µg/mL, XER 8 µg/mL in MEM-XER; read-out: Minimal inhibitory concentration
Source text: as §3, §1

Row | Structure (SMILES) | MIC [1] [µg/mL] | MIC [2] [µg/mL] | MIC [3] [µg/mL] | MIC (P. aeruginosa ATCC 27853) [µg/mL] | MIC (C. freundii SMART 315) [µg/mL] | MIC [4] [µg/mL] | MIC [5] [µg/mL] | MIC [6] [µg/mL] | MIC (Escherichia coli AZ 1677) [µg/mL] | MIC [7] [µg/mL] | MIC [8] [µg/mL] | MIC [9] [µg/mL] | MIC [10] [µg/mL] | MIC (Serratia marcescens SM1) [µg/mL] | MIC (E. coli TOP10) [µg/mL] | MIC [11] [µg/mL] | MIC (E. coli IMP-34) [µg/mL] | MIC (E. coli IMP-7) [µg/mL]
1 | CO/N=C(\C(=O)N[C@@H]1C(=O)N2C(C(=O)[O-])=C(C[N+]3(C)CCCC3)CS[C@H]12)c1csc(N)n1 [FEP, cefepime] | ≤ 0.25 | 256 | > 256 | 1 | 16 | 32 | 32 | 4 | 8 | 256 | 64 | 64 | > 256 | 4 | ≤ 0.25 | – | – | –
2 | C[C@@H](O)[C@H]1C(=O)N2C(C(=O)O)=C(SCCN=CN)C[C@H]12 [IPM, imipenem] | ≤ 0.25 | ≤ 0.25 | 16 | 1 | ≤ 0.25 | 0.5 | ≤ 0.25 | ≤ 0.25 | ≤ 0.25 | ≤ 0.25 | 1 | ≤ 0.25 | 128 | ≤ 0.25 | ≤ 0.25 | 0.5 | 0.5 | 0.25
3 | C[C@@H](O)[C@H]1C(=O)N2C(C(=O)O)=C(S[C@@H]3CN[C@H](C(=O)N(C)C)C3)[C@H](C)[C@H]12 [MEM, meropenem] | ≤ 0.25 | ≤ 0.25 | 64 | 0.5 | 2 | 4 | 1 | ≤ 0.125 | 0.5 | 0.5 | 8 | 0.125 | 256 | 2 | ≤ 0.25 | 0.5 | 2 | 2
